Test results from publication PMC4596473 (PLoS ONE, 2015).
Entries after “also recorded” stand apart in the source; their conditions may differ. Where two headings read alike, the source gives them in different places.

Key:
[1] = human, in vivo, po
Experimental: (§1) The plasma concentrations of luseogliflozin and its metabolites were determined by two separate methods at JCL Bioassay Corp. (Hyogo, Japan). Luseogliflozin, its metabolites and its deuterium-labeled internal standard (luseogliflozin-d5, M2-d5 and M17-d5, Taisho Pharmaceutical Co. Ltd., Japan) were extracted from plasma by solid phase extraction. Extracts were analysed by LC-MS/MS. The lower limit of quantification (LLOQ) for luseogliflozin and its metabolites (M2 and M17) in plasma were 0.05 and 0.1 ng/mL, respectively. […] Extracts were analysed by LC-MS/MS. […] Summary statistics were provided for the pharmacokinetic parameters by treatment group.

[2] = clinical; conditions: human, in vivo, po
Experimental: as §1

[3] = system: healthy Japanese subjects; test: Thorough QT/QTc study: 12-lead ECG assessment of QTcF/QTcB; format: in vivo, human; conditions: for Least squares mean ΔΔQTcF: moxifloxacin 400 mg single dose; for Upper bound of the 90% two-sided CI of the least squares mean ΔΔQTcB: all time points, data not shown; for Upper bound of the 90% two-sided CI for the least squares mean ΔΔQTcF: single dose, all time points 0.5-24 h post-dose
Experimental: The study was conducted at Kitasato Institute Hospital (Tokyo, Japan) from July 6th 2011 to September 15th 2011. […] All treatments were administered with 200 mL of water after at least 10-hour overnight fast, and no food was allowed until 4 hours after dosing. All treatments were administered in a randomized sequence. The random assignment manager randomly assigned treatment groups using the Williams Design to determine the order of treatments within each treatment sequence by the time of study drug administration to the first admission group. A randomization code was created for each treatment sequence sealed and securely retained until unblinding and were provided to the sponsor after unblinding.
Serial triplicate digital 12-lead electrocardiograms (ECGs) were recorded over 5 min in the supine position after resting for 10 min for each time point (pre-dose [50–70 min before dosing], 0.5, 1, 2, 3, 4, 6, 8, and 24 h post-dose) using an electrocardiograph (ELI250, Mortara). The same model of 12-lead digital surface ECG monitor was employed for all subjects at all time points. The same lead was used throughout the study. The interval between the start of each recording was ≥1 min, and ECG was recorded for 10 s for each chart. All 12-lead ECG charts for QT/QTc analysis were sent electronically to the central ECG analysis facility. RR and QT intervals were measured in accordance with the procedures of the facility. The time of recording and subject identification information were blinded before measurement. QTc intervals were corrected by Fridericia’s (QTcF = QT/RR^1/3) and Bazett’s (QTcB = QT/RR^1/2) formulae. QTcF was the primary endpoint, and QTcB was the secondary endpoint.
Treatment comparisons between luseogliflozin therapeutic dose or supratherapeutic dose and placebo (ΔΔQTc) were analyzed using a linear mixed model with treatment, sequence, period, scheduled time, and the interaction of treatment with scheduled time as fixed effects, subject as a random effect, and baseline QTc as a covariate. The effect of luseogliflozin on QT/QTc interval prolongation was regarded as negative when the upper bound of the 90% two-sided confidence interval (CI) for the mean effect on the QT/QTc interval […] 10 ms at all time points in the luseogliflozin groups.
A categorical analysis was also performed. New onset of QTc greater than 450, 480, or 500 ms after dosing or change from baseline in QTc greater than 30 or 60 ms was categorized in each treatment group.

[4] = system: healthy Japanese subjects; test: Safety assessment (adverse events, vital signs, ECG, laboratory tests); format: in vivo, human; conditions: for Tolerability: single dose of luseogliflozin 5 mg and 20 mg
Text: Safety assessments included recording of adverse events, vital signs (body temperature, blood pressure, and pulse rate), physical examinations, ECGs, and clinical laboratory tests.

[5] = system: human ether-a-go-go-related gene (hERG) current; test: hERG current in hERG-transfected HEK293 cells in vitro; format: cell-based; conditions: versus Cmax of a 5 mg dose in diabetic subjects in a clinical study
Text: In non-clinical studies, effects of luseogliflozin on the cardiovascular system were investigated via the human ether-a-go-go-related gene (hERG) current in hERG-transfected human embryonic kidney cells (HEK293 cells) in vitro; action potential in the papillary muscle of anesthetized guinea pigs; and blood pressure, heart rate, and electrocardiogram (ECG) in conscious beagle dogs.

[6] = cited from earlier work
[7] = system: papillary muscle of anesthetized guinea pigs; conditions: non-clinical study; cited from earlier work
[8] = system: SGLT2; conditions: read-out: 50% inhibitory concentration (IC50); SGLT2, human expressing cells, nonclinical study; cited from earlier work
[9] = system: human ether-a-go-go-related gene (hERG) current; conditions: at 9.6 μmol/L; non-clinical study; cited from earlier work
[10] = system: rats; conditions: 26-week repeated dose; cited from earlier work
[11] = system: dogs; conditions: 52-week repeated dose; cited from earlier work
[12] = system: conscious beagle dogs; conditions: non-clinical study; cited from earlier work
[13] = system: Japanese patients with type 2 diabetes mellitus; conditions: cited from earlier work
[14] = system: SGLT1; conditions: read-out: 50% inhibitory concentration (IC50); SGLT1, human expressing cells, nonclinical study; cited from earlier work
[15] = TS-071 25 mg single oral dose, healthy adult males, ref Investigator's Brochure of TS-071 (Version 6)
[16] = luseogliflozin 20 mg (supratherapeutic dose)

SMILES: COc1cc(C)c(Cc2ccc(O)cc2)cc1[C@@H]1S[C@H](CO)[C@@H](O)[C@H](O)[C@H]1O [M2]
- AUCinf ([1]; 5 mg): 257 ± 48.3 ng·h/mL
- Cmax ([1]; 5 mg): 8.85 ± 1.95 ng/mL
- T1/2 ([1]; 5 mg): 13.8 ± 2.61 h
- Tmax ([1]; 5 mg): 5.71 ± 2.14 h
- AUCinf ([1]; 20 mg): 1030 ± 212 ng·h/mL
- Cmax ([1]; 20 mg): 35.1 ± 7.36 ng/mL
- T1/2 ([1]; 20 mg): 13.9 ± 2.53 h
- Tmax ([1]; 20 mg): 5.83 ± 1.90 h

SMILES: COc1c(N2C[C@@H]3CCCN[C@@H]3C2)c(F)cc2c(=O)c(C(=O)O)cn(C3CC3)c12 [Moxifloxacin, moxifloxacin, reference compound]
- AUC(0-inf) ([2]; 400 mg): 60000 ± 11100 ng·h/mL
- Cmax ([2]; 400 mg): 3880 ± 939 ng/mL
- Tmax ([2]; 400 mg): 2.2 h
- Tmax ([1]; 400 mg): 2.19 ± 1.09 h
- Correlation between ΔΔQTcF and plasma concentration of unchanged compound ([3]; moxifloxacin 400 mg): positive relationship; also recorded: positive correlation
- Hysteresis of mean ΔΔQTcF versus mean plasma concentration ([3]; moxifloxacin 400 mg): counter-clockwise hysteresis effect; also recorded: counterclockwise hysteresis
- Least squares mean ΔΔQTcF ([3]; 3 and 4 hour post-dose): 13.4 ms
- Least squares mean ΔΔQTcF ([3]; 24 h post-dose): 7.7 ms
- Number (%) of Subjects, QTcF Increase >30 ms from baseline ([3]; moxifloxacin 400 mg, n = 54): 0 (0.0) n (%)
- Number (%) of Subjects, QTcF Increase >60 ms from baseline ([3]; moxifloxacin 400 mg, n = 54): 0 (0.0) n (%)
- Number (%) of Subjects, QTcF Value >450 ms ([3]; moxifloxacin 400 mg, n = 54): 7 (13.0) n (%)
- Number (%) of Subjects, QTcF Value >480 ms ([3]; moxifloxacin 400 mg, n = 54): 0 (0.0) n (%)
- Number (%) of Subjects, QTcF Value >500 ms ([3]; moxifloxacin 400 mg, n = 54): 0 (0.0) n (%)
- Number (%) of Subjects, QTcF Value >450 ms ([3]; moxifloxacin 400 mg, n = 54, listed as moxifloxacin): 7 n (%)
- Regression of ΔΔQTcF (msec) on plasma concentration (μg/mL) ([3]; moxifloxacin 400 mg, text in Fig 6): ΔΔQTcF = 3.42+3.03xConc.
- Percentage of subjects with an adverse event ([4]; moxifloxacin 400 mg group): 72.2%
- AEs, n (number of events) ([4]; moxifloxacin 400 mg, n = 54): 56 n
- Drug-related AEs, n (number of events) ([4]; moxifloxacin 400 mg, n = 54): 36 n

SMILES: CCOc1ccc(Cc2cc([C@@H]3S[C@H](CO)[C@@H](O)[C@H](O)[C@H]3O)c(OC)cc2C)cc1 [Luseogliflozin, (1S)-1,5-anhydro-1-[5-(4-ethoxybenzyl)-2-methoxy-4-methylphenyl]-1-thio-D-glucitol]
- Ratio of hERG test concentration (9.6 μmol/L) to the maximum observed Cmax [5]: approximately 370 times
- AUC(0-inf) ([2]; 5 mg): 2110 ± 418 ng·h/mL
- Cmax ([2]; 5 mg): 209 ± 48.9 ng/mL
- half-life ([2]; 5 mg): 10 ± 1.18 h
- Tmax ([2]; 5 mg): 1.3 h
- AUC(0-inf) ([2]; 20 mg): 8650 ± 1780 ng·h/mL
- Cmax ([2]; 20 mg): 787 ± 186 ng/mL
- Tmax ([2]; 20 mg): 1.5 ± 0.961 h
- Mean Tmax ([6]; TS-071 15 mg single oral dose, healthy adult males, ref Investigator's Brochure of TS-071 (Version 6)): 1.56 h
- Mean T1/2 [6, 15]: 12.6 h
- Mean Tmax [6, 15]: 2.25 h
- Time to maximum plasma concentration (Tmax) ([6]; single dose 1–25 mg): ≤ 2.25 h
- Tmax ([1]; 5 mg): 1.34 ± 0.935 h
- T1/2 ([1]; 20 mg): 9.90 ± 1.22 h
- Effect on the cardiovascular system [7]: No effect
- Upper bound of the 90% two-sided CI of the least squares mean ΔΔQTcB ([3]; luseogliflozin 5 mg (anticipated therapeutic dose)): < 10 ms
- Upper bound of the 90% two-sided CI for the least squares mean ΔΔQTcF ([3]; luseogliflozin 5 mg (therapeutic dose)): less than 10 ms
- Correlation between ΔΔQTcF and plasma concentration of unchanged compound ([3]; luseogliflozin 5 mg and 20 mg): No meaningful correlation; also recorded: no relationship
- Hysteresis of mean ΔΔQTcF versus mean plasma concentration ([3]; luseogliflozin 5 mg and 20 mg): no clear hysteresis effect
- Number (%) of Subjects, QTcF Increase >30 ms from baseline ([3]; luseogliflozin 5 mg, n = 56): 0 (0.0) n (%)
- Number (%) of Subjects, QTcF Increase >60 ms from baseline ([3]; luseogliflozin 5 mg, n = 56): 0 (0.0) n (%)
- Number (%) of Subjects, QTcF Value >450 ms ([3]; luseogliflozin 5 mg, n = 56): 1 (1.8) n (%)
- Number (%) of Subjects, QTcF Value >480 ms ([3]; luseogliflozin 5 mg, n = 56): 0 (0.0) n (%)
- Number (%) of Subjects, QTcF Value >500 ms ([3]; luseogliflozin 5 mg, n = 56): 0 (0.0) n (%)
- Upper bound of the 90% two-sided CI for the least squares mean ΔΔQTcF [3, 16]: less than 10 ms
- Upper bound of the 90% two-sided CI of the least squares mean ΔΔQTcB [3, 16]: < 10 ms
- Number (%) of Subjects, QTcF Increase >30 ms from baseline ([3]; luseogliflozin 20 mg, n = 53): 0 (0.0) n (%)
- Number (%) of Subjects, QTcF Increase >60 ms from baseline ([3]; luseogliflozin 20 mg, n = 53): 0 (0.0) n (%)
- Number (%) of Subjects, QTcF Value >450 ms ([3]; luseogliflozin 20 mg, n = 53): 0 (0.0) n (%)
- Number (%) of Subjects, QTcF Value >480 ms ([3]; luseogliflozin 20 mg, n = 53): 0 (0.0) n (%)
- Number (%) of Subjects, QTcF Value >500 ms ([3]; luseogliflozin 20 mg, n = 53): 0 (0.0) n (%)
- IC50 [8]: 2.26 nM
- Suppression of hERG current [9]: 7.7%
- Adverse events moderate in severity, number of events ([4]; 5 mg luseogliflozin group): two
- Subjects with first-degree atrioventricular block ([4]; 5 mg luseogliflozin group): one
- Prolonged PR interval in the subject with first-degree atrioventricular block ([4]; 48 h after administration of luseogliflozin 5 mg, one subject): 452 ms
- Relation of cardiovascular adverse events to the study drug ([4]; after administration of luseogliflozin): not related to the study drug
- Percentage of subjects with an adverse event ([4]; luseogliflozin 5 mg group): 41.1%
- AEs, n (number of events) ([4]; luseogliflozin 5 mg, n = 56): 48 n
- Drug-related AEs, n (number of events) ([4]; luseogliflozin 5 mg, n = 56): 20 n
- Percentage of subjects with an adverse event ([4]; luseogliflozin 20 mg group): 35.8%
- AEs, n (number of events) ([4]; luseogliflozin 20 mg, n = 53): 32 n
- Drug-related AEs, n (number of events) ([4]; luseogliflozin 20 mg, n = 53): 16 n
- Tolerability [4]: well tolerated
- Tolerability ([4]; listed as luseogliflozin): safe and well tolerated
- Dose levels with diarrhoea or soft stools [10]: ≥ 100 mg/kg
- No observed adverse effect level [10]: 4 mg/kg
- Dose levels with diarrhoea or soft stools [11]: ≥ 10 mg/kg
- No observed adverse effect level [11]: 2 mg/kg
- Effect on the cardiovascular system [12]: No effect
- Urinary glucose excretion in comparison to placebo ([13]; 0.5, 1, 2.5 and 5 mg/day, Japanese patients with type 2 diabetes mellitus): significantly increased
- Observed Cmax of unchanged TS-071 ([13]; Day 7, 7-day repeated administration of 5 mg, patients with type 2 diabetes): 299 ng/mL
- IC50 [14]: 2900 nM

SMILES: COc1cc(C)c(Cc2ccc(OCC(=O)O)cc2)cc1[C@@H]1S[C@H](CO)[C@@H](O)[C@H](O)[C@H]1O [M17]
- AUCinf ([1]; 5 mg): 120 ± 41.9 ng·h/mL
- Cmax ([1]; 5 mg): 6.02 ± 2.10 ng/mL
- T1/2 ([1]; 5 mg): 10.9 ± 1.49 h
- Tmax ([1]; 5 mg): 4.89 ± 1.14 h
- AUCinf ([1]; 20 mg): 487 ± 196 ng·h/mL
- Cmax ([1]; 20 mg): 24.3 ± 9.98 ng/mL
- T1/2 ([1]; 20 mg): 10.9 ± 1.71 h
- Tmax ([1]; 20 mg): 5.13 ± 1.14 h
